Assays:
hippocampal slice = experiment: Spontaneous interictal-like bursts in hippocampal slices with modified bathing medium; assay type: cell-based, rat
hippocampal tissue slice = experiment: Stimulation-evoked after discharge and intrinsic optical signals in hippocampal slices (Example 10); assay type: cell-based, rat
Description: Sprague-Dawley rats (male and female; 25 to 35 days old) were prepared as described in Aghajanian, A. K. and Rasmussen, K., Synapse 31:331, 1989; and Buckmaster, P. S., Strowbridge, B. W., Schwartzdroin, P. A., J. Neurophysiol. 70:1281, 1993. In most hippocampal slice experiments, simultaneous extracellular field electrode recordings were obtained from CA1 and CA3 areas. For stimulation-evoked after discharge (13 slices, 8 animals), the concentration of Mg^2+ in the bathing medium was reduced to 0.9 mM. A bipolar tungsten stimulating electrode was placed on the Schaffer collaterals to evoke synaptically driven field responses in CA1; stimuli consisted to 100 to 300-μs-duration pulses at an intensity of four times population-spike threshold. After discharges were evoked by a 2-[…] of such stimuli delivered at 60 Hz. […] In all treatments, perfusion with furosemide-containing medium was begun after a consistent level of bursting had been established.
For imaging of intrinsic optical signals, the tissue was illuminated with a beam of white light (tungsten filament light and lens system; Dedotec USA, Lodi, N.J.) directed through the microscope condenser. The light was controlled and regulated (power supply: Lambda Electronics, Melville, N.Y.) to minimize fluctuations and filtered (695 nm long-pass) so that the slice was transilluminated with long wavelengths (red). Image frames were acquired with a charge-coupled device camera (Dage-MTI) at 30 Hz and were digitized at 8 bits with a spatial resolution of 512 by 480 pixels by means of an Imaging Technology Series 151 imaging system; gains and offsets of the camera-control site and the analog-to-digital board were adjusted to optimize the sensitivity of the system. Imaging hardware was controlled by a 486-PC-compatible computer running software written by D. Hochman and developed with commercially available software tools (Microsoft's C/C++ Compiler and Imaging Technology's ITEX library). To increase signal-to-noise ratio, an averaged image was composed from 16 individual image-frames, integrated over 0.5 s and averaged together. An experimental series typically involved the continuous acquisition of a series of averaged images over a several minute time period; at least 10 of these averaged images were acquired as control images before stimulation. Pseudocolored images were calculated by subtracting the first control image from subsequently acquired images and assigned a color lookup table to the pixel values. For these images, usually a linear low-pass filter was used to remove high-frequency noise and a linear-histogram stretch was used to map the pixel values over the dynamic range of the system. All operations on these images were linear so that quantitative information was preserved.

[1] = test system: malignant CNS tumor (glioblastoma; astrocytoma, Grade IV); experiment: Optical imaging of dye perfusion in a highly malignant CNS tumor (Example 4); assay type: in vivo, human
Text: This example illustrates the image of a highly malignant CNS tumor (glioblastoma). A patient was imaged in a neurosurgical procedure as described in Example 1. A series of images were taken from the cortex of a patient with a malignant CNS tumor (glioblastoma; astrocytoma, Grade IV). […] A difference image was obtained at 15 seconds after intravenous injection of indocyanine green, showing the dynamics of dye perfusion in the first seconds in malignant tissue are […] to those in the first few seconds of benign tumor tissue. […] Therefore, it is possible with this device to identify malignant tumor tissue, distinguish intraoperatively between normal and malignant tumor tissue, and to distinguish between the various grades of tumor (e.g., normal vs. benign vs. malignant). Thus, it is possible to not only image the location of tumor tissue, but also to grade the tumor with more malignant tumors retaining dye for a longer period of time than a lower grade tumor.

glioma [2] = test system: glioma; parameters: species or system rat; conditions: in vivo
Text: This example illustrates a series of experiments using a rat glioma model intraoperatively to investigate whether the inventive method and inventive device could function in an operating room setting to provide real time information to the surgeon regarding resection of all tumor tissue. The rat glioma model is a standard predictive model and was used to delineate dye uptake, clearance and overall parameters of optical imaging that result in the best images. The advantages of this model are the ability to consistently get reproducible tumors for imaging studies and to be able to rescect tumor under an operating microscope and still find residual tumor with the inventive optical imaging. A disadvantage of this model is the more sarcoma-like appearance of the tumor and a lesser degree of vascularity compared to human gliomas.
Briefly, the rat glioma model uses an ethylnitrosourea-induced F-344 rat tumor line developed from a clonal population of a spinal malignant astrocytoma. […] The glioma cells were maintained in Weymouth's medium supplemented with 10% fetal calf serum. Viable cells (5×10^4) were trypsinized from a monolayer culture and implanted stereotaxically into the right cerebral hemisphere of 30 syngeneic female rats, each weighing 140-160 g. The stereotaxic coordinates for right frontal lobe implantation were 4.5 mm anterior to the frontal zero plane, 3 mm right from the midline and 6 mm deep. The rats were anesthetized for implantation. The heads were shaved and scalps opened, and a 1 mm burr hole made at the appropriate coordinates. The cells were injected through a 27 gauge needle, the needle left in place for 30 sec post injection and the hole was covered with bone wax: The scalp was sutured and the animals observed for 3-4 hrs until they returned to normal activity and feeding. The animals were used !I 0-14 days after tumor implantation. In this model, animals begin to show clinical symptoms from the tumor by 16-19 days, such as decreased activity and feeding, hemiparesis and eventually succumb between 19-27 days from mass effects due to tumor expansion.
Fourteen animals underwent complete study, including imaging before and after resection of the tumor. For study, the animals were anesthetized with 2% isoflurane, and the femoral vein canulated for administration of the dye. Anesthesia was maintained with a chloralsoe (50 mg/kg administered ip) and urethane (160 mg/kg administered ip). The animals were placed in a stereotaxic holder. Imaging studies were then carried out before or after removal of the cranium. The tumor typically occupied the anterior one half to two thirds of the right hemisphere exposure. […]

[3] = test system: low grade human CNS tumor; experiment: Optical imaging of dye perfusion in a low grade human CNS tumor (Example 3); assay type: in vivo
Description: This example illustrates the use of a contrast enhancing agent, indocyanine green, to identify and spatially localize a low grade human CNS tumor. An MRI scan was conducted before the operation. Additionally, the patient was investigated for tumor tissue using the apparatus described according to the invention and specifically described above.
The area of interest was evenly illuminated by a fiber optic light source with the radiation passing through a beam splitter, controlled by a D.C. regulated power supply (Lambda, Inc.) and passed through a 695 nm long pass filter. Images were acquired with a CCD camera (COHU 6500) fitted to the operating microscope with a specially modified cineadaptor. The cortex was stabilized with a glass footplate. Images were acquired at 30 Hz and digitized at 8 bits (512×480 pixels, using an Imaging Technology, Inc. Series 151 system, Woburn, Mass.). Geometrical transformations were applied to images to compensate for small amounts of patient motion (Wohlberg, Digital Imaging Warping, IEEE Computer Society: Los Alamitos, Calif., 1988). […] Raw data (i.e., no digital enhancement) were used for determining the average optical change in specified regions (average size site was 30×30 pixels or 150-250 um^2). For pseudocolor images, a linear low pass filter removed high frequency noise and linear histogram transformations were applied. Noise was defined as the standard deviation of fluctuations in sequentially acquired control images as 0.003-0.009.
An averaged control image was obtained of the particular cortical surface area of interest. Indocyanine green dye was administered into a peripheral intravenous catheter as a bolus at Time 0. Lettered labels were placed upon the brain by the surgeon overlay the tumor as identified intraoperatively by ultrasound. However, tumors of this type and grade are notoriously difficult to distinguish from normal tissue once the surgical removal of the tumor has begun. Difference images were taken approximately 15 seconds after intravenous injection of dye (indocyanine green at 1 mg/kg), and 30 seconds after dye administration. […] Therefore, it is possible to image even low grade tumors with this apparatus. Furthermore, it is possible to distinguish, intraoperatively, low grade tumor tissue from surrounding normal tissue.

glioma [4] = conditions: rat, in vivo
Text: This example illustrates a series of experiments using a rat glioma model and optical detection techniques through an intact skull to investigate whether the inventive method and inventive device could function in to image tumor tissue through an intact skull and through intact skin prior to or after surgery. Far red wavelengths of emr are known to penetrate through bone and skin. Imaging of tumor tissue was attempted through the intact skull of the rat. The extent of tumor identified was not as accurate as with the cortex exposed, however, the area lying beneath the skull with tumor tissue was easily identified, localized and continued to concentrate dye after several minutes.
An image was taken for a grey-scale image of the cranial surface of a rat. The sagital suture runs down the center of the image. Tumor cells had been injected into the left side some days earlier so that this animal had developed a glioma on the left hemisphere of its brain. The right hemisphere was normal. A site 1 laid over the suspect region of brain tumor, and a site 2 laid over normal tissue. A difference image was acquired at 1 second after indocyanine green dye had been intravenously injected into the animal. The region containing tumor tissue becomes immediately visible through the intact cranium. […] A concentration of dye in the center of this difference image was observed and depicted dye circulating in the sagital sinus.
The optical changes were determined by the average optical change in a site placed directly over the tumor and over the normal hemisphere. The increase in absorption is a function of the concentration of dye in the tissue at a particular time. The graph labeled “extracranial tumor” is a plot of the dynamics of the absorption changes from the tumor area. The graph labeled “extracranial: normal” is a plot of the dynamics of the absorption change from the non-tumor area.

[5] = 2.5 mM in medium, 20 minutes of perfusion, stimulation at 60 Hz

## Nc1ccncc1 [4-AP]
Hippocampal slice; 200 to 300 μM in bathing medium, 4 slices, 2 animals
  spontaneous interictal-like bursts, average: 33 bursts/min

## [K+] [K^+]
Hippocampal slice; 10 mM in bathing medium, 6 slices, 4 animals
  spontaneous interictal-like bursts, average: 81 bursts/min

## CN1CCc2cc3c(cc2[C@H]1[C@@H]1OC(=O)c2c1ccc1c2OCO1)OCO3 [bicuculine]
Hippocampal slice; 50 to 100 in bathing medium, 4 slices, 3 animals
  spontaneous interictal-like bursts, average: 14 bursts/min

## NS(=O)(=O)c1cc(C(=O)O)c(NCc2ccco2)cc1Cl [furosemide]
Hippocampal tissue slice; 2.5 mM in medium, 20 minutes of perfusion
  field response to the test pulse: hyperexcitable field response (multiple population spikes)
Hippocampal tissue slice; [5]
  electrical after discharge (epileptiform) activity: blocks
  stimulation-evoked optical changes (intrinsic optical signal): blocks
Hippocampal tissue slice; 45 minutes of perfusion with normal bathing medium
  response after washout: restoration of the initial response pattern

## CC1(C)C(/C=C/C=C/C=C/C=C2\N(CCCCS(=O)(=O)O)c3ccc4ccccc4c3C2(C)C)=[N+](CCCCS(=O)(=O)[O-])c2ccc3ccccc3c21 [indocyanine green]
[1]; 30 seconds after intravenous injection
  intensity in malignant tissue compared to normal tissue: even more intense
[1]; 1 minute and 10 minutes after dye injection
  retention of dye in malignant tumor tissue compared to benign tumor tissue: retained significantly longer
Glioma [2]; female, F-344, rat
  duration of prolonged increase in the optical signal in the tumor: > 2 min
  time after dye injection at which optical signals began to change: 2 to 3 s
Glioma [2]; rat
  dye in tumor tissue versus normal tissue: still collecting in tumor tissue
Glioma [2]; rat, iv
  dye in the cerebrospinal fluid after administration: No dye was found
[3]; 1 mg/kg intravenous bolus, approximately 15 and 30 seconds after dye administration
  tissue staining in difference images, tumor tissue: first tissue staining
[3]; 1 mg/kg intravenous, low grade tumor
  time at which all tissue (both normal and abnormal) showed staining: 45 s
[3]; five minutes after dye administration, low grade tumor
  clearance of dye from the area of interest: complete clearance
[3]; intravenous
  entry into low grade tumor tissue compared to normal brain tissue: faster than normal brain tissue
Glioma [4]; 60 seconds
  plateau phase optical change, normal brain: 3.1±0.7%
  plateau phase optical change, tumor tissue: 40.5±9.6%
Glioma [4]; iv
  peak optical change, normal brain imaged through the cranium: 7.8±2.3%
  peak optical change, tumor imaged through the cranium: 13.1±3.9%

Source: patent US20030236458A1, “Spectroscopic systems and methods for detecting tissue properties” (BIOPHYSICA LLC, priority 1999, published 2003)
